Reference: patent US4272437A, “Antibacterial agents, and 4-thio azetidinone intermediates” (priority 1979, dated 1981)
≈ marks a conversion by molar mass, not a printed value. Where two headings read alike, the source gives them in different places.

Assays:
[1] = tested on: E. coli A-20341-1; experiment: MIC, tube dilution, Escherichia coli A20341-1; assay type: cell-based; details: Escherichia coli, A203411; E. coli A20341-1; overnight 37° C.; read-out: Minimum Inhibitory Concentration (M.I.C.)
Source text: (§1) Representative compounds of the present invention were subjected to in vitro antibiotic screening against a variety of microorganisms.

[2] = tested on: Pr. mirabilis A-9900; experiment: MIC, tube dilution, Proteus mirabilis A9900; assay type: cell-based; details: Proteus mirabilis, A9900, Proteus mirabilis A9900; overnight 37° C.; read-out: Minimum Inhibitory Concentration (M.I.C.)
Source text: as §1

[3] = tested on: Str. faecalis A-20688; experiment: MIC, tube dilution, Streptococcus faecalis A20688; assay type: cell-based; details: Enterococcus faecalis, A20688, Str. faecalis A20688; overnight 37° C.; read-out: Minimum Inhibitory Concentration (M.I.C.)
Source text: as §1

[4] = tested on: Str. pyogenes A-9604; experiment: MIC, tube dilution, Streptococcus pyogenes A9604; assay type: cell-based; details: overnight 37° C., Nutrient Broth; for MIC: Streptococcus pyogenes, A9604, Str. pyogenes A9604, read-out: Minimum Inhibitory Concentration (M.I.C.)
Source text: as §1

[5] = tested on: Klebsiella species A20468; experiment: MIC, tube dilution, Klebsiella species A20468; assay type: cell-based; details: Klebsiella species (K. pneumoniae) A20468; overnight 37° C.; read-out: Minimum Inhibitory Concentration (M.I.C.)
Source text: as §1

[6] = tested on: E. coli A-15119; experiment: MIC, tube dilution, Escherichia coli A15119; assay type: cell-based; details: Escherichia coli, A15119, E. coli A15119; overnight 37° C.; read-out: Minimum Inhibitory Concentration (M.I.C.)
Source text: as §1

[7] = tested on: Ent. cloacae A-9659; experiment: MIC, tube dilution, Enterobacter cloacae A9659; assay type: cell-based; details: Enterobacter cloacae, A9659, Enterobacter cloacae A9659; overnight 37° C.; read-out: Minimum Inhibitory Concentration (M.I.C.)
Source text: as §1

[8] = tested on: Ps. aeruginosa A-9843A; experiment: MIC, tube dilution, Pseudomonas aeruginosa A9843A; assay type: cell-based; details: Pseudomonas aeruginosa, A9843A, read-out: Minimum Inhibitory Concentration (M.I.C.), Pseudomonas aeruginosa A9843A; overnight 37° C.
Source text: as §1

[9] = tested on: Pr. vulgaris A-9716; experiment: MIC, tube dilution, Proteus vulgaris / Proteus mirabilis A9716; assay type: cell-based, Proteus vulgaris (name changed to Proteus mirabilis); details: Proteus vulgaris, overnight 37° C.
Source text: as §1

[10] = tested on: Pr. morganii A-15153; experiment: MIC, tube dilution, Proteus morganii A15153; assay type: cell-based; details: Morganella morganii, A15153, Proteus morganii A15153; overnight 37° C.; read-out: Minimum Inhibitory Concentration (M.I.C.)
Source text: as §1

[11] = tested on: Proteus rettgeri A21203; experiment: MIC, tube dilution, Proteus rettgeri A21203; assay type: cell-based; details: Providencia rettgeri, overnight 37° C., read-out: Minimum Inhibitory Concentration (M.I.C.)
Source text: as §1

[12] = tested on: Staph. aureus A-9537; experiment: MIC, tube dilution, Staphylococcus aureus A9537; assay type: cell-based; details: overnight 37° C., Nutrient Broth; for MIC: Staphylococcus aureus, A9537, Staph. aureus A9537, read-out: Minimum Inhibitory Concentration (M.I.C.)
Source text: as §1

[13] = tested on: Staph. aureus A-9537 and 50% serum; experiment: MIC, tube dilution, Staph. aureus A9537 + 50% serum; assay type: cell-based, Staphylococcus aureus; details: Staphylococcus aureus, overnight 37° C., read-out: Minimum Inhibitory Concentration (M.I.C.)
Source text: as §1

[14] = tested on: Str. pneumoniae A-9585; experiment: MIC, tube dilution, Streptococcus pneumoniae A9585; assay type: cell-based; details: overnight 37° C., Nutrient Broth; for MIC: Streptococcus pneumoniae, A9585, Str. pneumoniae A9585, read-out: Minimum Inhibitory Concentration (M.I.C.)
Source text: as §1

[15] = tested on: Ent. cloacae A-9656; experiment: MIC, tube dilution, Enterobacter cloacae A9656; assay type: cell-based; details: overnight 37° C., read-out: Minimum Inhibitory Concentration (M.I.C.)
Source text: as §1

[16] = tested on: Ps. aeruginosa A-21213; experiment: MIC, tube dilution, Pseudomonas aeruginosa A21213; assay type: cell-based; details: Pseudomonas aeruginosa A21213; overnight 37° C.; read-out: Minimum Inhibitory Concentration (M.I.C.)
Source text: as §1

[17] = tested on: K. pneumoniae A-15130; experiment: MIC, tube dilution, Klebsiella pneumoniae A15130; assay type: cell-based; details: Klebsiella pneumoniae, A15130, K. pneumoniae A15130; overnight 37° C.; read-out: Minimum Inhibitory Concentration (M.I.C.)
Source text: as §1

[18] = tested on: Staph. aureus (Pen-Res) A-9606; experiment: MIC, tube dilution, Staphylococcus aureus A9606 (Pen-Res); assay type: cell-based; details: Staphylococcus aureus, overnight 37° C.
Source text: as §1

[19] = tested on: Staph. aureus (Meth-Res) A-15097; experiment: MIC, tube dilution, Staphylococcus aureus A15097 (Meth-Res); assay type: cell-based; details: Staphylococcus aureus, read-out: Minimum Inhibitory Concentration (M.I.C.), Staph. aureus A15097 (Meth-Res); overnight 37° C.
Source text: as §1

[20] = tested on: Ser. marcescens A-20019; experiment: MIC, tube dilution, Serratia marcescens A20019; assay type: cell-based; details: Serratia marcescens, A20019, Serratia marcescens A20019; overnight 37° C.; read-out: Minimum Inhibitory Concentration (M.I.C.)
Source text: as §1

[21] = A9716, read-out: Minimum Inhibitory Concentration (M.I.C.), Proteus vulgaris / Proteus mirabilis A9716
[22] = read-out: Minimum Inhibitory Concentration (M.I.C.), Staph. aureus A9606 (Pen-Res)
[23] = A9716, Proteus vulgaris / Proteus mirabilis A9716, read-out: Minimum Inhibitory Concentration (M.I.C.)
[24] = A21203, Proteus rettgeri A21203
[25] = Enterobacter cloacae, A9656, Enterobacter cloacae A9656

| Structure (SMILES) | MIC [1] [µg/mL] | MIC [2] [µg/mL] | MIC [3] [µg/mL] | MIC [5] [µg/mL] | MIC [6] [µg/mL] | MIC [7] [µg/mL] | MIC [8] [µg/mL] | MIC [9, 21] [µg/mL] | MIC [10] [µg/mL] | MIC ([11]; Proteus rettgeri A21203) [µg/mL] | MIC [13] [µg/mL] | MIC ([15]; Enterobacter cloacae A9656) [µg/mL] | MIC [16] [µg/mL] | MIC [17] [µg/mL] | MIC [18, 22] [µg/mL] | MIC [19] [µg/mL] | MIC [20] [µg/mL] | MIC [4] [µg/mL] | MIC [12] [µg/mL] | MIC [14] [µg/mL] | also measured |
| --- | --- | --- | --- | --- | --- | --- | --- | --- | --- | --- | --- | --- | --- | --- | --- | --- | --- | --- | --- | --- | --- |
| O=C([O-])C1=C(Cc2ccccc2)S[C@@H]2CC(=O)N12.[Na+] [Preparation 21, Sodium 2-Benzylpenem-3-carboxylate] | 125 | 1 | 32 | 125 | 4 | 63 | 125 | 2 | 4 | 4 | > 63 | 32 | 125 | 125 | 1 | 32 | 63 |  |  |  | Minimum Inhibitory Concentration (M.I.C.) ([4]; Str. pyogenes A9604): 8 µg/mL; Minimum Inhibitory Concentration (M.I.C.) ([12]; Staph. aureus A9537): .06 µg/mL; Minimum Inhibitory Concentration (M.I.C.) ([14]; Str. pneumoniae A9585): 2 µg/mL |
| CSC(SC)C1=C(C(=O)O)N2C(=O)CC2S1 (stereo not shown) [Preparation 26, Sodium 2-(Dimethyldithiomethyl)penem-3-carboxylate] | > 125 | 32 | > 125 | > 125 | 32 | 63 | 125 |  | 63 |  | > 63 |  | 125 | > 125 | 125 | > 125 | 63 | 4 | 4 | 2 | MIC [9, 23]: 32 µg/mL; MIC [11, 24]: 32 µg/mL; MIC [15, 25]: 63 µg/mL |
| Cn1cc(C2=C(C(=O)O)N3C(=O)CC3S2)cn1 (stereo not shown) [Example 15] | > 125 | 16 (≈ 63.7 µM) | 63 (≈ 251 µM) | > 125 | 16 (≈ 63.7 µM) | 125 (≈ 497 µM) | 125 (≈ 497 µM) |  | 63 (≈ 251 µM) |  | > 63 |  | 125 (≈ 497 µM) | 125 (≈ 497 µM) |  | 125 (≈ 497 µM) | 63 (≈ 251 µM) | 0.5 (≈ 1.99 µM) | 1 (≈ 3.98 µM) | 0.13 (≈ 0.517 µM) | MIC [9, 23]: 16 µg/mL (≈ 63.7 µM); MIC [11, 24]: 16 µg/mL (≈ 63.7 µM); MIC [15, 25]: 63 µg/mL (≈ 251 µM); MIC ([18]; Staph. aureus A9606 (Pen-Res), read-out: Minimum Inhibitory Concentration (M.I.C.)): 32 µg/mL (≈ 127 µM) |
| O=C(O)C1=C(C(F)(F)F)SC2CC(=O)N12 (stereo not shown) [Example 17, Sodium 2-Trifluoromethylpenem-3-carboxylate] | > 125 | > 125 | > 125 | > 125 | 125 | > 125 | 125 | > 125 | > 125 | 125 | > 63 | > 125 | 125 | > 125 | > 125 | > 125 | > 125 | > 8 | > 8 | > 8 |  |
| O=C([O-])C1=C(Cc2ccco2)S[C@@H]2CC(=O)N12.[Na+] [Preparation 18, Sodium 2-(2-Furylmethyl)penem-3-carboxylate] | > 125 | 2 | 63 | > 125 | 2 | 16 | > 125 | 2 | 8 | 4 | > 63 | 32 | > 125 | 32 | 1 | 16 | 32 | 0.25 | 0.5 | 0.06 |  |
